Usually pIC50 stands for −log10 of the IC50, conventionally taken in molar units. Broadly, the GI50 is the concentration at which growth is held to half of that of the control. For orientation: inhibition means the percentage by which the read-out fell short of the control. The term IC50 denotes the concentration that inhibits the measured activity by half.

For data set [1], the system named is HepG2. Description: Anticancer activity against human HepG2 cell assessed as cell growth inhibition. It is filed as functional, cell-based.
Data set [2] deals with PC-3. The experiment in a line: Anticancer activity against human PC-3 cell assessed as cell growth inhibition. It is filed as functional, cell-based.
Data set [3] deals with HCT-116. Description: Anticancer activity against human HCT-116 cell assessed as cell growth inhibition. Format: functional, cell-based.
The subject of data set [4] is PC-3. Description: Anticancer activity against human PC-3 cells assessed as cell growth inhibition measured after 48 hrs by MTT assay. Format: functional, cell-based. Particulars: PC-3, 48 h. On the technique in general: Tetrazolium assays rely on reduction of a dye to a coloured formazan, in cell work by metabolically active cells.
The subject of data set [5] is HCT-116. The experiment in a line: Anticancer activity against human HCT-116 cells assessed as cell growth inhibition measured after 48 hrs by MTT assay. It is filed as functional, cell-based. Conditions: HCT-116, 48 h.
Data set [6] deals with HepG2. Description: Potency index, ratio of cisplatin IC50 to test compound IC50 for anticancer activity against human HepG2 cells. Format: functional.
For data set [7], the system named is HepG2. The experiment in a line: Anticancer activity against human HepG2 cells assessed as cell growth inhibition measured after 48 hrs by MTT assay. Format: functional, cell-based. Particulars: HepG2, 48 h.
The subject of data set [8] is HCT-116. Description: Potency index, ratio of cisplatin IC50 to test compound IC50 for anticancer activity against human HCT-116 cells. Format: functional.
The test system of data set [9] is PC-3. Description: Potency index, ratio of cisplatin IC50 to test compound IC50 for anticancer activity against human PC-3 cells. It is filed as functional.
In data set [10] the test system is HT-29. The experiment in a line: Anticancer activity against human HT-29 cells assessed as cell growth inhibition measured after 48 hrs by MTT assay. It is filed as functional, cell-based. Conditions: HT-29, 48 h.
In data set [11] the test system is K562. The experiment in a line: Anticancer activity against human K562 cells assessed as cell growth inhibition measured after 48 hrs by MTT assay. Format: functional, cell-based. Particulars: K562, 48 h.
For data set [12], the system named is MCF7. The experiment in a line: Anticancer activity against human MCF7 cells assessed as cell growth inhibition measured after 48 hrs by MTT assay. It is filed as functional, cell-based. Conditions: MCF7, 48 h.
In data set [13] the test system is PC-3. Description: Anticancer activity against human PC-3 cells assessed as cell death at 50 uM measured after 72 hrs by MTT assay relative to control. It is filed as functional.
The test system of data set [14] is MDA-MB-435. Description: Anticancer activity against human MDA-MB-435 cells assessed as cell growth inhibition by SRB assay. It is filed as functional, cell-based. (Sulforhodamine B stains cellular protein and so reports cell mass.)
The subject of data set [15] is MDA-MB-435. The experiment in a line: Growth inhibition of human MDA-MB-435 cells assessed as cell growth inhibition by SRB assay. Format: functional.
Data set [16] deals with MCF7. The experiment in a line: Anticancer activity against human MCF7 cells assessed as cell growth inhibition by SRB assay. It is filed as functional, cell-based.
The test system of data set [17] is MCF7. The experiment in a line: Anticancer activity against human MCF7 cells assessed as cell growth inhibition measured after 24 hrs by SRB assay. It is filed as functional, cell-based. Particulars: MCF7, 24 h.
Data set [18] relates to Huh-7. Description: Anticancer activity against human Huh-7 cells assessed as cell growth inhibition measured after 24 hrs by SRB assay. Format: functional, cell-based. Particulars: Huh-7, 24 h.
Data set [19] concerns Mahlavu. Description: Anticancer activity against human Mahlavu cells assessed as cell growth inhibition measured after 24 hrs by SRB assay. Format: functional, cell-based.
For data set [20], the system named is HCT-116. Description: Anticancer activity against human HCT-116 cells assessed as cell growth inhibition measured after 24 hrs by SRB assay. It is filed as functional, cell-based. Conditions: HCT-116, 24 h.
Data set [21] deals with COS-7. Description: Anticancer activity against COS-7 cells assessed as cell growth inhibition at 50 uM measured after 48 hrs by MTT assay relative to control. Conditions: Chlorocebus aethiops. It is filed as functional.
The test system of data set [22] is HT-29. The experiment in a line: Anticancer activity against human HT-29 cells assessed as cell growth inhibition measured after 24 hrs by MTT assay. Format: functional, cell-based. Particulars: HT-29, 24 h.
Data set [23] concerns MCF7. Description: Anticancer activity against human MCF7 cells assessed as cell growth inhibition measured after 24 hrs by MTT assay. It is filed as functional, cell-based. Conditions: MCF7, 24 h.
Data set [24] deals with MCF7. Description: Growth inhibition of human MCF7 cells assessed as cell growth inhibition by SRB assay. Format: functional.
A short description of data set [25]: Cytotoxicity against human Chang liver cells assessed as cell growth inhibition measured after 24 hrs by DAPI and propidium iodide staining based assay. It is filed as toxicity.

Structures are written as SMILES. pIC50: −log10 of the molar value.

On to `Cc1ccc([C@@H]2[C@@H](C(=O)c3c[nH]c4ccccc34)[C@]3(C(=O)Nc4ccccc43)N3CSC[C@@H]23)cc1`, for which the negative-log IC50 (pIC50) is 5.26 in data set [1], 5.22 in data set [2] and 5.05 in [3].
Take `O=C(/C=C/c1ccc(Cl)cc1Cl)[C@H]1[C@H](c2ccc(Cl)cc2Cl)[C@H]2CSCN2[C@]12C(=O)Nc1ccccc12`: the negative logarithm of the IC50 (pIC50) in data set [4] was at most 5.57; in [5], 5.70; in data set [7] it was 6.00. Moreover, the “Ratio IC50” value in [6] is listed as 2; in [8] it was 4; in [9], 1.8.
Consider `O=C1CCC(=O)N1CC(=O)N1N=C(c2ccccc2)CC1c1ccccc1` (stereo not drawn), for which the pIC50 in data set [10], in data set [11] and in data set [12] was 6.41 each time.
With `O=C(c1c[nH]c2ccccc12)[C@@H]1[C@@H](c2cccc(F)c2)[C@@H]2CSCN2[C@@]12C(=O)Nc1ccccc12`, the negative-log IC50 (pIC50) was 5.26 in [1], 5.10 in data set [2] and 5.05 in [3]. Besides, the “Ratio IC50” value in data set [9] was above 2.9.
With `COC(=O)[C@H]1C[C@@H](C(=O)OC)C(c2ccccc2)(c2ccccc2)N1C(=O)Cn1cc(C2CC2)nn1`, the Activity in data set [13] is recorded as 25%.
Take `O=C(/C=C/c1cccc([N+](=O)[O-])c1)[C@H]1[C@H](c2cccc([N+](=O)[O-])c2)[C@H]2CSCN2C12C(=O)Nc1ccccc12` (stereo partly drawn): the negative logarithm of the IC50 (pIC50) in [4] is at most 5.57; in [5], 5.60; in [7], 6.00. Besides, the entries for the “Ratio IC50” value in [6], in [8] and in data set [9] were 2, 4 and 1.8, respectively.
Turning to `N#CC1=C(N)OC2=C(C(=O)CO2)C12C(=O)Nc1ccc(I)cc12` (stereo not drawn), the values for the pIC50 in data set [14] and in data set [16] were at most 5.44 and at most 4.28, respectively. Moreover, the GI50 in [15] was 27.3 µM.
Turning to `CC(C)C[C@@H]1N2[C@H](c3ccccc3)[C@H](c3ccccc3)OC(=O)[C@H]2[C@H](c2ccc([N+](=O)[O-])cc2)[C@@]12C(=O)Nc1ccccc12`, the negative logarithm of the IC50 (pIC50) in data set [17] is 5.32; in [18], 4.11; in data set [19], 4.83; in data set [20], 5.41.
For `COc1ccc(C2NCCC23C(=O)Nc2ccccc23)cc1OC` (stereo not drawn), the inhibition at 50 µM in data set [21] turned out to be 0.51%.
For the molecule `O=C(c1c[nH]c2ccccc12)[C@@H]1[C@@H](c2ccc(Br)cc2)[C@@H]2CSCN2[C@@]12C(=O)Nc1ccccc12`, the pIC50 in data set [1] was 5.26; in data set [2], 5.15. The “Ratio IC50” value in [9] was above 3.
For the molecule `O=C(c1c[nH]c2ccccc12)[C@@H]1[C@@H](c2cccc(C(F)(F)F)c2)[C@@H]2CSCN2[C@@]12C(=O)Nc1ccccc12`, the negative logarithm of the IC50 (pIC50) in data set [1] is 5.26; in [3], 5.15.
Turning to `O=C(/C=C/c1ccc(Cl)cc1)[C@H]1[C@H](c2ccc(Cl)cc2)[C@H]2CSCN2[C@]12C(=O)Nc1ccccc12`, the pIC50 was at most 5.57 in data set [4], 5.60 in data set [5] and 6.00 in data set [7]. Besides, the “Ratio IC50” value in data set [6] worked out at 2; in data set [8], 4; in [9], 1.8.
On to `CC(C)C[C@@H]1N2[C@H](c3ccccc3)[C@H](c3ccccc3)OC(=O)[C@H]2[C@H](c2ccccc2Cl)[C@@]12C(=O)Nc1ccccc12`, for which the pIC50 was 4.95 in [17], 4.44 in [18], 4.58 in data set [19] and 4.98 in data set [20].
For `CC(C)(C)c1cc(/C=N/N2C(=O)c3ccccc3C2=O)c(O)c(C(C)(C)C)c1`, the pIC50 in [22] is 3.18; in [23] it was 3.53.
In the case of `CCCC(C)c1cn(CC(=O)N2[C@@H](C(=O)OC)C[C@@H](C(=O)OC)C2(c2ccccc2)c2ccccc2)nn1` (stereo partly drawn), in data set [13], the Activity came out at 25%.
Take `O=C(c1c[nH]c2ccccc12)[C@@H]1[C@@H](c2cccc(Br)c2)[C@@H]2CSCN2[C@@]12C(=O)Nc1ccccc12`: the negative logarithm of the IC50 (pIC50) in [1] was 5.26; in data set [2], 5.10; in data set [3], 5.05. For the same molecule, the “Ratio IC50” value in [9] is above 2.9.
Consider `COc1cccc2c1C(=O)c1c(O)c3c(c(O)c1C2=O)C[C@@](O)(C(=O)CO)C[C@@H]3O[C@H]1C[C@H](N)[C@H](O)[C@H](C)O1.Cl` [DOXORUBICIN HYDROCHLORIDE], for which, in data set [24], the GI50 is below 10 µg/mL.
As for `CC(=O)O[C@H]1C(=O)[C@@]2(C)[C@H]([C@H](OC(=O)c3ccccc3)[C@]3(O)C[C@H](OC(=O)[C@H](O)[C@@H](NC(=O)c4ccccc4)c4ccccc4)C(C)=C1C3(C)C)[C@]1(OC(C)=O)CO[C@@H]1C[C@@H]2O` [PACLITAXEL], the pIC50 in data set [10] is 4.70; in [11], 6.46; in data set [12], 4.33.
For `CCc1ccc(CCOc2ccc(CC3SC(=O)NC3=O)cc2)nc1` (stereo not drawn) [PIOGLITAZONE] the same measures were 4.39, 6.54 and 7.15.
On to `CC/C(=C(\c1ccccc1)c1ccc(OCCN(C)C)cc1)c1ccccc1` [TAMOXIFEN], for which the GI50 in [24] was below 10 µg/mL. Also, the IC50 at 24 h in data set [25] came out at 46.2 µM. Besides, the pIC50 in [23] was 4.69.
